According to ChEMBL document CHEMBL3632587, “Discovery of a Specific Inhibitor of Pyomelanin Synthesis in Legionella pneumophila” (J Med Chem, 2015):
“And” between values parts separate entries of the source, which are not always exact repeats. Identical values can stand only once. The source made the active and inactive calls. The calls are words filed in the database; no cut-off is given here.

What was measured:
[1] = tested on: Legionella pneumophila; assay: Inhibition of Legionella pneumophila recombinant PAH assessed as residual activity by […] assay using 1 mM L-Phe as substrate and 200 uM BH4 as cofactor
[2] = tested on: Escherichia coli; assay: Antibacterial activity against Escherichia coli XL-10 Gold at <= 100 uM after 21 hrs; type: functional, organism-based
[3] = Binding affinity to Legionella pneumophila recombinant PAH by DSF assay
[4] = tested on: Legionella pneumophila; assay: Inhibition of PAH in Legionella pneumophila 130b lysate assessed as residual activity at 10 uM by direct detect spectrometer
[5] = tested on: Legionella pneumophila; assay: Antibacterial activity against Legionella pneumophila 130b assessed as bacterial growth at <= 10 uM after 24 hrs by spectrometer; type: functional, organism-based
[6] = tested on: Escherichia coli; assay: Antibacterial activity against Escherichia coli XL-10 Gold assessed as slower growth rate at > 40 uM after 21 hrs; type: functional, organism-based
[7] = Non-competitive inhibition of Legionella pneumophila recombinant PAH for free enzyme by […] assay using BH4 as cofactor
[8] = Mixed inhibition of Legionella pneumophila recombinant PAH for enzyme-substrate complex by […] assay method using L-Phe as substrate
[9] = tested on: Legionella pneumophila; assay: Antibacterial activity against Legionella pneumophila 130b assessed as bacterial growth at 20 uM after 24 hrs by spectrometer; type: functional, organism-based
[10] = target: T1, Phenylalanine-4-hydroxylase (Homo sapiens) (UniProt P00439); assay: Inhibition of human PAH by […] assay using L-Phe as substrate and 75 uM BH4 as cofactor
T1 sequence (whole entry): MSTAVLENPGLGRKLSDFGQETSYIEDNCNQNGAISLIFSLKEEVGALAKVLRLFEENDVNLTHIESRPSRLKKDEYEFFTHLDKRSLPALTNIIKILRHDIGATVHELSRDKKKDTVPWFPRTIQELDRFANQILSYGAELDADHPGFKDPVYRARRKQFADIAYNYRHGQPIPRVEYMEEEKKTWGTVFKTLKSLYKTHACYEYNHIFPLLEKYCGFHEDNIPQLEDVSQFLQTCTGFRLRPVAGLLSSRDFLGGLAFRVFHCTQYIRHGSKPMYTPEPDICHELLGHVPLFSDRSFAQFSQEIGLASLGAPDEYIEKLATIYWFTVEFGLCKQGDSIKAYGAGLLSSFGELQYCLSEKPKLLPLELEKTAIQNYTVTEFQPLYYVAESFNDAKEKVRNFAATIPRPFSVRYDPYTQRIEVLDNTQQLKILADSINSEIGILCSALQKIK

[11] = Mixed inhibition of Legionella pneumophila recombinant PAH for free enzyme by […] assay using L-Phe as substrate
[12] = tested on: Legionella pneumophila; assay: Antibacterial activity against Legionella pneumophila 130b assessed as bacterial growth at 40 uM after 24 hrs by spectrometer; type: functional, organism-based
[13] = Non-competitive inhibition of Legionella pneumophila recombinant PAH for enzyme-substrate complex by […] assay using BH4 as cofactor
[14] = Uncompetitive inhibition of Legionella pneumophila recombinant PAH for free enzyme by […] assay using L-Phe as substrate
[15] = Uncompetitive inhibition of Legionella pneumophila recombinant PAH for enzyme-substrate complex by […] assay using L-Phe as substrate
[16] = tested on: Legionella pneumophila; assay: Antibacterial activity against Legionella pneumophila 130b assessed as bacterial growth at 0.1 to 40 uM after 24 hrs by spectrometer; type: functional, organism-based

SMILES: CC(C)(C)c1ccc(C2C(C(=O)c3cccs3)=C(O)C(=O)N2c2nncs2)cc1 (configuration not stated)
- Activity [1]: 4.2%

SMILES: O=c1cc(CO)oc(C(Nc2nccs2)c2ccc(F)cc2)c1O (configuration not stated)
- Activity [1]: 0.1%

SMILES: c1ccc2c(c1)CSc1sccc1C2n1ccnc1 (configuration not stated)
- Activity [1]: 0.38%
- Activity [2]: inactive
- Kd [3]: 1100 nM
- Activity [4]: 36%
- Activity [5]: inactive
- Activity [6]: Active
- Ki [7]: 2000 nM
- Ki [8]: 4100 nM
- Activity [9]: Active
- inhibition [10]: Active
- Ki [11]: 2200 nM
- Activity [12]: Active
- Ki [13]: 1700 nM

SMILES: CC1(C)CC(=O)C2=C(C1)NC1=C(C(=O)CC(C)(C)C1)C2c1cnc[nH]1
- Activity [1]: 3.2%

SMILES: Cc1nccn1C1c2ccccc2CSc2sccc21 (configuration not stated)
- Activity [1]: 2.2%

SMILES: O=C(C1=C(O)C(=O)N(c2nncs2)C1c1ccc(Cl)cc1)c1cccs1 (configuration not stated)
- Activity [1]: 2.23%

SMILES: CN1CCN(c2cc(-c3ccccn3)nc3ccccc23)CC1
- Activity [1]: 2.6%

SMILES: c1ccc(-c2cc(N3CCOCC3)c3ccccc3n2)nc1
- Activity [1]: 4.9% and 2.6%

SMILES: S=C(NNC(=S)Nc1ccccc1)Nc1ccccc1
- Activity [1]: 1.9%

SMILES: O=C(C1=C(O)C(=O)N(Cc2ccco2)C1c1ccc(Oc2ccccc2)cc1)c1cccs1 (configuration not stated)
- Activity [1]: 1.53%

SMILES: Oc1cc(C(F)(F)F)nn1-c1nc2ccccc2s1
- Activity [1]: 1.4%

SMILES: O=C(O)c1cc([N+](=O)[O-])cc2c1-c1ccc([N+](=O)[O-])cc1/C2=N/O
- Activity [1]: 0.1%
- Ki [14]: 20000 nM
- Activity [4]: 39%
- Ki [7]: 1000 nM
- Ki [15]: 370 nM
- Activity [16]: Active
- Ki [13]: 1000 nM

SMILES: c1ccc2c(c1)CSc1ccccc1C2n1ccnc1 (configuration not stated)
- Activity [1]: 1.6%

SMILES: c1ccc(-c2cc(N3CCCCC3)c3ccccc3n2)nc1
- Activity [1]: 3.1%
